# Assay: Human HepG2 cell viability assay in 384 well format
# Assay type: toxicity, cell-based
# Design: dose 125 nL, time 70.5 hour; cytotoxicity at 70.5 h: concentration not given beside the values
# Settings: HepG2 cells, read-out: Inhibition
row,SMILES,cytotoxicity at 70.5 h
1,CNS(=O)(=O)CC(=O)N(Cc1ccsc1)c1ccccc1,-8.25%
2,COC(=O)N1CCCC(NC(=O)NCc2cccc(C)n2)C1 (stereo unspecified),-6.49%
3,CCCc1cc(NCCn2cccn2)n2nccc2n1,1.84%
4,Cn1ncc2c(N3CCCC(C)(O)C3)nc(-c3cccnc3)nc21 (stereo unspecified),9.87%
5,CC(C)c1ccc(S(=O)(=O)N2CCCC3(CCCN3S(C)(=O)=O)C2)cc1 (stereo unspecified),39.5%
6,Cc1ccccc1CN(C)C(=O)CCc1nc(-c2nnc[nH]2)no1,8.55%
7,CC1CN(C)c2ccccc2N(C(=O)c2c[nH]c(C(C)C)n2)C1 (stereo unspecified),31.3%
8,CCc1[nH]ncc1C(=O)N1CCCC(n2nc(C)nc2C)C1 (stereo unspecified),19.7%
9,CCN(c1ccsc1C(=O)N1CCC(C)CC1)S(=O)(=O)c1ccccc1,-11.9%
10,COc1cc(N2CCn3cc(CNc4ccccn4)nc3C2)ncn1,2.02%
11,CN(C)C(=O)CNC(CC(F)(F)F)c1ccc(F)cc1 (stereo unspecified),7.18%
12,CCc1cnc(CN2CCCC2c2noc(C3CC3)n2)o1 (stereo unspecified),-11.3%
13,O=C(O)C(c1cccc2c1OCC2)N1CCC(N2CCCC2)CC1 (stereo unspecified),-0.16%
14,Cc1cc(C(=O)N(C)Cc2nc(-c3ccccn3)no2)c(C)o1,-4.74%
15,CNc1cc(C2CCCN2Cc2ccccc2OCC(=O)O)ccn1 (stereo unspecified),-5.11%
16,Cc1nc(N(C)C)nc(NCCc2ccccn2)c1C,-9.09%
17,COc1ccc(CNC2CCN(CCc3ccncc3)CC2)cc1O,-6.38%
18,Cc1nc(S(=O)(=O)N2CCc3[nH]nc(CCC(C)C)c3C2)cn1C,-6.22%
19,CN(Cc1ccccc1)CC1CC2(CO1)CN(Cc1nccs1)C2 (stereo unspecified),-6.93%
20,COCC(=O)N1CCCC(C(=O)NCc2cc(CC(C)C)on2)C1 (stereo unspecified),27%
21,CCN1CC2(CCC1=O)CCN(Cc1cscn1)CC2,-10.8%
22,CC(CN1CCOC1=O)NC(=O)c1cccc(Cl)c1Cl (stereo unspecified),-4.07%
23,CN(c1ccc(Cl)c(C(=O)NCCCN2CCOCC2)c1)S(C)(=O)=O,3.59%
24,Cn1cnn(CC(=O)NCc2ccccc2F)c1=O,20.6%

row,SMILES,cytotoxicity at 70.5 h
1,CCCS(=O)(=O)N1CCN(c2ccc3nnc(CC)n3n2)CC1,-12.7%
2,Cc1ccc(CNC2CCN(CCc3ccncc3)CC2)cc1C,1.32%
3,CCn1ccnc1CN1CCN(CC(=O)NC(C2CC2)C2CC2)CC1,16.4%
4,CCn1ncc(NC(=O)CCn2ncc3c(Cl)cccc32)c1C,7.52%
5,COCCN(Cc1sccc1C)Cc1nccn1CCOC,-4.3%
6,CC(C)c1ccc(OCCNC(=O)c2ccoc2)cc1,23.9%
7,c1cnc(N2CCO[C@@H]3CN(Cc4ccoc4)C[C@@H]3C2)nc1,4.32%
8,Cc1ccc(-c2cc(CN3CCCC(Cn4cncn4)C3)on2)cc1 (stereo unspecified),27.6%
9,O=C(CSc1nnc(N2CCOCC2)s1)NC(=O)Nc1ccccc1,-4.91%
10,CS(=O)(=O)NC(=O)c1ccn(-c2ccccc2Cl)n1,-1.86%
11,COc1nc2c(cc1C(=O)NCc1noc(Cc3cccs3)n1)CCC2,-3.41%
12,O=C(NCCC(O)c1ccco1)c1ccccc1Br (stereo unspecified),-2.47%
13,CCc1cnc(N2CCc3cc(C(=O)NC)c(N(C)C)nc3CC2)nc1,-13.6%
14,Cc1nccc(-c2cccc(NCC(=O)N3CCNC(=O)C3)c2)n1,-5.62%
15,CC(C)C1=NOC(c2nc(Cc3ccccc3)no2)C1 (stereo unspecified),-1.11%
16,NC(=O)CN(Cc1ccc(Br)cc1)C(=O)c1ccncc1,-2.62%
17,CC(Cn1cccn1)C(=O)N1CCC(NS(C)(=O)=O)CC1 (stereo unspecified),-6.23%
18,CC(=O)NCCNC(=O)Nc1cccc(Cl)c1SC(F)F,-0.195%
19,Cc1nnc(CN(C)C2CCN(Cc3nnc(C4CCC4)o3)C2)n1C (stereo unspecified),1.37%
20,COCC1CC2(CCN(C(=O)C3CCSCC3)CC2)CO1 (stereo unspecified),8.61%
21,CNc1cc(C(=O)NCCC2=CSC3=NCCCN23)ccn1,1.26%
22,CC(O)CN1CCN(C(=O)CCOC(C)C)CC1 (stereo unspecified),-3.79%
23,CC(C)C(=O)N1Cc2ccccc2CC2(CCCCN2C)C1 (stereo unspecified),-10.2%
24,O=C1NCc2ccccc2CC12CCN(Cc1ccncc1Cl)C2 (stereo unspecified),-3.37%

row,SMILES,cytotoxicity at 70.5 h
1,Cc1nn(C)cc1CN1CCCn2nc(CNC(=O)C3CCC3)cc2C1,-3.2%
2,OCCN1CCN(Cc2cc3c(cc2Br)OCCO3)CC1,20.1%
3,Cn1nnc2c1C(COCC1CC1)CN(C(=O)[C@H]1CCCO1)C2 (stereo partly specified),0%
4,CC(C)N1CCC2(CC1)CN(C)C(=O)C[C@H]2C(F)(F)F,-7.67%
5,Cc1csc(NC(=O)CN2CCCC(Cn3nc(C)nc3C)C2)n1 (stereo unspecified),-7.51%
6,Cc1noc(C)c1CN1C(=O)[C@H]2CC[C@@H]1CN(C(=O)c1cscn1)C2,-2.09%
7,Cc1ccccc1S(=O)(=O)N1CCCCC1c1ccn[nH]1 (stereo unspecified),-28.4%
8,CCCc1noc(CCC(=O)N2CCN(C)CC2c2ccccc2)n1 (stereo unspecified),-15%
9,Cc1cc(C(=O)N2CC(O)CO2)c2ccc(C)c(C)c2n1 (stereo unspecified),-6.82%
10,CNC(=O)CN(C)C(=O)c1cc(Cl)c(I)cc1OC,-18.4%
11,CCN(CC1CN(Cc2ncc(C)o2)CCO1)c1cccnn1 (stereo unspecified),-2.43%
12,COc1ccccc1NC(=O)NC(C)c1nc[nH]n1 (stereo unspecified),0.321%
13,CC1CN(c2ccc(CNC(=O)NCCn3ccnc3)cn2)CCO1 (stereo unspecified),-16.7%
14,c1ccc(CCc2n[nH]c(C3CCOC3)n2)cc1 (stereo unspecified),-10.1%
15,CCN(C)C(=O)c1ccc(N(C)Cc2cc(-c3ccncc3)no2)nc1,-2.26%
16,OC1CCN(Cc2ccnc(-c3cccnc3)n2)CC1,-7.13%
17,CCCn1nc2c(cc1=O)CN(CCS(C)(=O)=O)CC2,9.12%
18,c1cc2nc(C3CCNCC3)nn2cc1NC1CCC1,23.2%
19,Cc1cc(CN2CCC(C3CCN(CC(C)C)CC3)C2)[nH]n1 (stereo unspecified),-3.48%
20,CCOc1ccnc(N2CCN(C(=O)c3cccnc3O)CC2)n1,1.67%
21,Cc1ccc(Oc2cc(CN)ccn2)cc1C,-22.3%
22,c1coc(-c2noc(CN3CCCC(Cn4cncn4)C3)n2)c1 (stereo unspecified),26%
23,O=S(=O)(c1ccc(-c2cnco2)cc1)N1CCC2(CCCNC2)C1 (stereo unspecified),-1.83%
24,CC(C)NC(=O)c1ccc(NC(=O)NC(C)c2ccccn2)cc1 (stereo unspecified),19.1%

row,SMILES,cytotoxicity at 70.5 h
1,Cc1ccc(F)c2c1CCCN2Cc1cc(=O)n(C)c(=O)n1C,-7.78%
2,CCC(C)(NCc1cccc(NC(C)=O)c1)c1nc(C)cs1 (stereo unspecified),-0.722%
3,COc1ccc(C(=O)NCCC(N)=O)c(I)c1,24.4%
4,O=C(Cn1nc(-c2ccc(F)cc2)oc1=O)Nc1ccccc1,13.9%
5,CCc1nc2n(n1)CC(Nc1ccnc(-c3ccccc3)n1)CC2 (stereo unspecified),-3.97%
6,CCOc1ccc(C(F)(F)F)cc1NCc1cc(C)on1,26.7%
7,COc1ccnc(NC(=O)CSCc2cccnc2)c1,-1.54%
8,O=C(c1cc(-c2cn[nH]c2)nc2ccc(F)cc12)N1CCSCC1,-5.34%
9,COc1cccc(CC(C)NCC(=O)Nc2ccccc2C)c1 (stereo unspecified),-0.681%
10,Cc1cc(C2CCCN2C(=O)CN(C)Cc2ccccc2)no1 (stereo unspecified),-5.16%
11,C[C@H](c1ccc(F)cc1)n1c(C2CCC2)n[nH]c1=O,-12.6%
12,CCOc1ccc(N(CCC#N)C(=O)c2ccc(OC)nc2)cc1,1.85%
13,CC(C)Nc1ncnc2c1CCN(Cc1ccoc1)CC2,-12.6%
14,Cc1csc(N2CCN(C(=O)c3cc(Cl)c[nH]3)CC2)n1,-0.933%
15,Cc1cc(COc2ccc(OC3CCCCNC3=O)cc2)on1 (stereo unspecified),-3.96%
16,Cc1noc(Cl)c1CCC(=O)N1CCN(c2ncccn2)CC1,-7.01%
17,Cn1ccc2cc(C(=O)NC3CCS(=O)(=O)C3)ccc21 (stereo unspecified),-10.9%
18,CCS(=O)(=O)CCN1CCC(N(C)Cc2noc(C(C)C)n2)C1 (stereo unspecified),-5.52%
19,CN(C)CCNCCC(c1ccccc1)C1CCOC(C)(C)C1 (stereo unspecified),-6.43%
20,Cc1nc(CN(C)C2CCN(CC3CCC3)C2)no1 (stereo unspecified),-4.98%
21,CN(C)S(=O)(=O)N1CCCC(c2cccc(Cc3ccccc3F)n2)C1 (stereo unspecified),11.4%
22,CCO[C@@H]1CN(S(=O)(=O)c2cn(C)cn2)[C@@H]2CCCO[C@@H]21,-10.2%
23,COc1cc(N2CCC3(CC2)CN(S(C)(=O)=O)c2ccccc23)ncn1,-2.83%
24,CS(=O)(=O)NC1CCN(Cc2ccc(OCc3ccccn3)cc2)CC1,-5.51%

row,SMILES,cytotoxicity at 70.5 h
1,CC(C)(C)c1ccc2c(c1)CCN2C(=O)c1ccc(=O)[nH]n1,-5.53%
2,CNC(=O)c1ccc(CNC(=O)NCCN(C)C2CCCC2)cc1,-1.36%
3,CN(C)CCN1CCN(C)c2nc(-c3ccccc3)ncc2C1=O,-9.02%
4,Cc1cc2n(n1)CC(CNC1CCN(C(=O)C3CC3)CC1)CN2 (stereo unspecified),16.7%
5,CCCc1nc(CN2CCOC(Cn3cncn3)C2)cs1 (stereo unspecified),22.5%
6,CC(NC(=O)NCCS(C)(=O)=O)c1ccc2c(c1)CCC(=O)N2 (stereo unspecified),2.87%
7,COc1cc(CNC2CCCN(c3ncccn3)C2)cc2c1OCO2 (stereo unspecified),-5.86%
8,COC(=O)Cc1cccc(NC(=O)Cc2ccon2)c1,23.7%
9,CCS(=O)(=O)NCCNC(=O)c1cc(Cl)c2c(c1)OCCCO2,-9.4%
10,Cn1cc(CN2CCC(F)(F)C3(CCN(c4cnccn4)C3)C2)cn1 (stereo unspecified),-0.766%
11,CC(=O)c1cccc(OCCCC(=O)N(C)Cc2ccccn2)c1,-2.88%
12,CN(C)C(=O)COC1COC2(CCN(S(C)(=O)=O)CC2)C1 (stereo unspecified),-6.01%
13,CC(C)(C)c1csc(C2CCCCN2C(=O)CCn2cncn2)n1 (stereo unspecified),-5.87%
14,N#CC1(C(=O)N2CCCN(Cc3cscn3)CC2)CCCCC1,0.606%
15,Cc1cc(NC(=O)Cn2ccccc2=O)n(C)n1,-11.7%
16,Cc1nc(COC[C@@H]2CCC[C@@]23CNCCO3)cs1,15.5%
17,COCc1cccc(CNc2cnn(C(C)(C)C)c(=O)c2Cl)c1,41%
18,CCn1ncnc1C(C)NC(=O)C1CCN(C2CCCCC2)CC1 (stereo unspecified),-7.1%
19,CC1=C(C(=O)N(C)Cc2n[nH]c3c2CCCCC3)C(C)NC(=O)N1 (stereo unspecified),31%
20,O=C(c1ccco1)N1CC[C@H]2[C@H]1CCN2CC1CCOCC1,5.37%

# — ChEMBL document CHEMBL3507680, “University of Dundee, Gates Library screen for HepG2 cell viability”
